Assay results published in patent publication US20240002401A1, “IMIDAZOTHIAZOLE COMPOUNDS, PHARMACEUTICAL COMPOSITIONS, AND USES THEREOF” (GUANGZHOU HENOVCOM BIOSCIENCE CO., LTD., priority 2020, published 2024).

These molecules were tested against ATX (Homo sapiens, UniProt Q13822) (assay: Enzyme activity screening in vitro with LPC as substrate (Amplex Red fluorescence)). Settings: inhibitory activity against ATX.
Format: biochemical
Description: Analysis In Vitro: LPC was Used as Substrate for Screening Enzyme Activity
Principle: Lysophosphatidylcholine (LPC) as substrate is hydrolyzed by using the activity of lysoPLD enzyme, to produce lysophosphatidic acid (LPA) and choline, which is oxidized to produce H2O2 under the action of choline oxidase. In presence of horse radish peroxidase (HPR), Amplex Red reagent is reacted with H2O2 in a quantitative chemistry ratio of 1 to 1, to produce strong fluorescence products, which are detected by a fluorescent quantitative test.
20 μl of the above mixed solution 1 was added to each hole of an experiment board, […]. The compounds diluted with DMSO were transferred into an experiment board with Echo550. The reaction buffer solution was used for preparing a mixed solution 2 of […] LPC and 400 μM Amplex Red in a final concentration. 20 μl of the above mixed solution 2 was added to each hole of the experiment board. After addition, the experiment board was shook for 30 seconds on a shaker, and incubated for 30 minutes. Envision was used to read the fluorescence signals with an exciting light at 530 nm and emitted light at 590 nm.

| Compound | IC50 |
| --- | --- |
| CCc1nc2sc(C3CCN(CC(=O)NCCO)CC3)cn2c1N(CC)c1nc(-c2ccc(F)cc2)c(C#N)s1 [Embodiment 3, 2-(4-(5-((5-cyano-4-(4-fluorophenyl)thiazol-2-yl)(ethyl)amino)-6-ethylimidazo[2,1-b]thiazol-2-yl]piperidin-1-yl)-N-(2-hydroxyethyl)acetamide] | 100 to 500 nM |
| CCc1nc2sc(C3CCN(CC(=O)N(C)CCO)CC3)cn2c1N(CC)c1nc(-c2ccc(F)cc2)c(C#N)s1 [Embodiment 4, 2-(4-(5-((5-cyano-4-(4-fluorophenyl)thiazol-2-yl)(ethyl)amino)-6-ethylimidazo[2,1-b]thiazol-2-yl]piperidin-1-yl)-N-(2-hydroxyethyl)-N-methylacetamide] | 0.01 to 100 nM |
| CCc1nc2sc(C3CCN(CC(=O)NC4CC(O)C4)CC3)cn2c1N(CC)c1nc(-c2ccc(F)cc2)c(C#N)s1 (centres unmarked) [Embodiment 5, 2-(4-(5-((5-cyano-4-(4-fluorophenyl)thiazol-2-yl)(ethyl)amino)-6-ethylimidazo[2,1-b]thiazol-2-yl]piperidin-1-yl)-N-(3-hydroxycyclobutyl)acetamide] | 0.01 to 100 nM |
| CCc1nc2sc(C3CCN(CC(=O)N4CC(O)C4)CC3)cn2c1N(CC(F)(F)F)c1nc(-c2ccc(F)cc2)c(C#N)s1 [Embodiment 6, 2-((6-ethyl-2-(1-(2-(3-hydroxyazetidin-1-yl)-2-oxoethyl)piperidin-4-yl)imidazo[2,1-b]thiazol-5-yl)(2,2,2,-trifluoroethyl)amino)-4-(4-fluorophenyl)thiazole-5-carbonitrile] | 0.01 to 100 nM |
| CCc1nc2sc(C3CCN(CC(=O)NCC(C)(C)O)CC3)cn2c1N(CC)c1nc(-c2ccc(F)cc2)c(C#N)s1 [Embodiment 8, 2-(4-(5-((5-cyano-4-(4-fluorophenyl)thiazol-2-yl)(ethyl)amino)-6-ethylimidazo[2,1-b]thiazol-2-yl)piperidin-1-yl)-N-(2-hydroxy-2-methylpropyl)acetamide] | 0.01 to 100 nM |
| CCc1nc2sc(C3CCN(CC(=O)NCC(C)(C)CO)CC3)cn2c1N(CC)c1nc(-c2ccc(F)cc2)c(C#N)s1 [Embodiment 9, 2-(4-(5-((5-cyano-4-(4-fluorophenyl)thiazol-2-yl)(ethyl)amino)-6-ethylimidazo[2,1-b]thiazol-2-yl)piperidin-1-yl)-N-(3-hydroxy-2,2-dimethylpropyl)acetamide] | 0.01 to 100 nM |
| CCc1nc2sc(C3CCN(CC(=O)N(C)CCC#N)CC3)cn2c1N(CC)c1nc(-c2ccc(F)cc2)c(C#N)s1 [Embodiment 10, 2-(4-(5-((5-cyano-4-(4-fluorophenyl)thiazol-2-yl)(ethyl)amino)-6-ethylimidazo[2,1-b]thiazol-2-yl)piperidin-1-yl)-N-(2-cyanoethyl)-N-methylacetamide] | 0.01 to 100 nM |
| CCc1nc2sc(C3CCN(CC(=O)NC4(CO)CC4)CC3)cn2c1N(CC)c1nc(-c2ccc(F)cc2)c(C#N)s1 [Embodiment 12, 2-(4-(5-((5-cyano-4-(4-fluorophenyl)thiazol-2-yl)(ethyl)amino)-6-ethylimidazo[2,1-b]thiazol-2-yl)piperidin-1-yl)-N-(1-(hydroxymethyl)cyclopropyl)acetamide] | 0.01 to 100 nM |
| CCc1nc2sc(C3CCN(CC(=O)NC(C)CO)CC3)cn2c1N(CC)c1nc(-c2ccc(F)cc2)c(C#N)s1 (centres unmarked) [Embodiment 13, 2-(4-(5-((5-cyano-4-(4-fluorophenyl)thiazol-2-yl)(ethyl)amino)-6-ethylimidazo[2,1-b]thiazol-2-yl)piperidin-1-yl)-N-(1-hydroxypropan-2-yl)acetamide] | 100 to 500 nM |
| CCc1nc2sc(C3CCN(CC(=O)NC(C)(C)CO)CC3)cn2c1N(CC)c1nc(-c2ccc(F)cc2)c(C#N)s1 [Embodiment 14, 2-(4-(5-((5-cyano-4-(4-fluorophenyl)thiazol-2-yl)(ethyl)amino)-6-ethylimidazo[2,1-b]thiazol-2-yl)piperidin-1-yl)-N-(1-hydroxy-2-methylpropan-2-yl)acetamide] | 0.01 to 100 nM |
| CCc1nc2sc(C3CCN(CC(=O)NCC4(O)CC4)CC3)cn2c1N(CC)c1nc(-c2ccc(F)cc2)c(C#N)s1 [Embodiment 15, 2-(4-(5-((5-cyano-4-(4-fluorophenyl)thiazol-2-yl)(ethyl)amino)-6-ethylimidazo[2,1-b]thiazol-2-yl)piperidin-1-yl)-N-((1-hydroxycyclopropyl)methyl)acetamide] | 100 to 500 nM |
| CCc1nc2sc(C3CCN(CC(=O)NCC4(O)CCC4)CC3)cn2c1N(CC)c1nc(-c2ccc(F)cc2)c(C#N)s1 [Embodiment 16, 2-(4-(5-((5-cyano-4-(4-fluorophenyl)thiazol-2-yl)(ethyl)amino)-6-ethylimidazo[2,1-b]thiazol-2-yl)piperidin-1-yl)-N-((1-hydroxycyclobutyl)methyl) acetamide] | 0.01 to 100 nM |
| CCc1nc2sc(C3CCN(CC(=O)NC4CC(F)(F)C4)CC3)cn2c1N(CC)c1nc(-c2ccc(F)cc2)c(C#N)s1 [Embodiment 17, 2-(4-(5-((5-cyano-4-(4-fluorophenyl)thiazol-2-yl)(ethyl)amino)-6-ethylimidazo[2,1-b]thiazol-2-yl)piperidin-1-yl)-N-(3,3-difluorocyclobutyl)acetamide] | 100 to 500 nM |
| CCc1nc2sc(C3CCN(CC(=O)NCC4CC4)CC3)cn2c1N(CC)c1nc(-c2ccc(F)cc2)c(C#N)s1 [Embodiment 18, 2-(4-(5-((5-cyano-4-(4-fluorophenyl)thiazol-2-yl)(ethyl)amino)-6-ethylimidazo[2,1-b]thiazol-2-yl)piperidin-1-yl)-N-(cyclopropylmethyl)acetamide] | 100 to 500 nM |
| CCc1nc2sc(C3CCN(CC(=O)NCC4CCC4)CC3)cn2c1N(CC)c1nc(-c2ccc(F)cc2)c(C#N)s1 [Embodiment 19, 2-(4-(5-((5-cyano-4-(4-fluorophenyl)thiazol-2-yl)(ethyl)amino)-6-ethylimidazo[2,1-b]thiazol-2-yl)piperidin-1-yl)-N-(cyclobutylmethyl)acetamide] | 0.01 to 100 nM |
| CCc1nc2sc(C3CCN(CC(=O)NC4CCOCC4)CC3)cn2c1N(c1nc(-c2ccc(F)cc2)c(C#N)s1)C(C)C [Embodiment 26, 2-(4-(5-((5-cyano-4-(4-fluorophenyl)thiazol-2-yl)(isopropyl)amino)-6-ethylimidazo[2,1-b]thiazol-2-yl)piperidin-1-yl)-N-(tetrahydro-2H-pyran-4-yl)acetamide] | 0.01 to 100 nM |
| CCc1nc2sc(C3CCN(CC(=O)NC4COC4)CC3)cn2c1N(c1nc(-c2ccc(F)cc2)c(C#N)s1)C(C)C [Embodiment 27, 2-(4-(5-((5-cyano-4-(4-fluorophenyl)thiazol-2-yl)(isopropyl)amino)-6-ethylimidazo[2,1-b]thiazol-2-yl)piperidin-1-yl)-N-(oxacyclobut-3-yl)acetamide] | 0.01 to 100 nM |
